The results in this text go back to US9572890B2, “Oral formulations of mitochondrially-targeted antioxidants and their preparation and use” (MITOTECH SA, priority 2011, dated 2017).

Data set [1] in a line: Stability of MTAs in liquid solvents (degradation rate). Format: physicochemical. On the procedure:
Liquid solvents were also tested for their ability to stabilize representative MTAs SkQ1 and SkQR1. The solvents tested were water solutions of glycerol (10% to 100%), 50% lactulose, and 1,2-propylene glycol (10% to 100%, at 60° C.). Some representative results are shown below (Table 1).

Data set [2] is described as follows: Stability in dark plastic or glass vials (light sensitivity). Format: physicochemical. The text has this: Accordingly, one of the ways to further improve or increase stability of SkQ liquid compositions during storage and transportation is to protect it from light.
Data set [3] deals with human endothelial cells EA.hy926. Briefly: TNF-α induced death of endothelial cells (MTT test). Format: cell-based. The settings on record: 0.2 nM pre-incubation 4 d; TNF-α 0.25 to 50 ng/ml for 2 d. On the procedure: Human endothelial cell line EA.hy926 (ATCC Collection; catalog number CRL-2922) was used as a model of vascular endothelium. This cell line is similar to primary HUVEC cell line (Edgell et al. (1983) PNAS, 80(12):3734-7; Edgell et al. (1990) In Vitro Cell Dev Biol., 26(12):1167-72) and widely used as a relevant model for inflammation studies (Riesbeck et al. (1998) Clin. Vaccine Immunol., 5:5675-682).
Accordingly, human endothelial cells EA.hy926 were pre-incubated with 0.2 nM SkQR1 or 2 nM SkQ1 solution in Dulbecco's Modified Eagle's Medium (DMEM) supplemented with 10% of fetal serum (Example 1) for 4 d. After that the cells were incubated overnight with fresh DMEM medium with 0.2% of fetal serum. The cells were incubated 2 d with TNF-α (0.25 ng/ml to 50 ng/ml) and cell death was monitored using standard MTT test (Berridge et al. (1996) Biochemica, 4:14-9). The data from this assay is shown as means±S.E. at least for 3 separate experiments.
For orientation: Formazan colour is commonly taken as a measure of viable cells.

With `CC/N=c1/cc2oc3cc(NCC)c(C)cc3c(-c3ccccc3C(=O)OCCCCCCCCCCC3=CC(=O)C(C)=C(C)C3=O)c-2cc1C` [SkQR1], the “Degradation rate, percent per day” value in data set [1] (100 mkM in 10% 1,2-propylene glycol, at 60° C.) is 6.19 percent per day; in data set [1] (100 mkM in 20% 1,2-propylene glycol, at 60° C.), 0.34 percent per day; in data set [1] (100 mkM in 30% 1,2-propylene glycol, at 60° C.) it was 0.32 percent per day; in data set [1] (100 mkM in 40% 1,2-propylene glycol, at 60° C.) it was 0.06 percent per day; in data set [1] (100 mkM in 50% 1,2-propylene glycol, at 60° C.), less than 0.01 percent per day; in data set [1] (100 mkM in 60% 1,2-propylene glycol, at 60° C.) it was less than 0.01 percent per day. The “Degradation rate, percent per day” value in data set [1] (100 mkM in 70% 1,2-propylene glycol, at 60° C.) amounted to 0.05 percent per day; in data set [1] (100 mkM in 80% 1,2-propylene glycol, at 60° C.), 0.23 percent per day; in data set [1] (100 mkM in 90% 1,2-propylene glycol, at 60° C.), 0.30 percent per day; in data set [1] (100 mkM in 100% 1,2-propylene glycol, at 60° C.) it was 0.23 percent per day; in data set [1] (140 mkM in 50% Glycerol) it was 0.7 percent per day. Also, the stability entry in data set [2] was “significantly increased”. Further, the “cell death compared to control without MTA” value in data set [3] is on record as “greatly reduced”.
